# Measurements taken from patent US8207169B2, “Substituted [1,2,4]triazolo[4′,3′:1,6]pyrido[2,3-b]pyrazines of the formula D” (MSD K.K., priority 2008, dated 2012).
# Experiments:
# Akt1 kinase = target: T1, Akt1 kinase (Homo sapiens, UniProt P31749); test: Akt kinase assay (HTRF, GSK-derived biotinylated peptide substrate); format: biochemical; conditions: activated Akt1 kinase
# T1 construct: a middle T tag was added to the 5′ end of the full length Akt1 gene; biotin tag (from pS2neo vector); made in house; host or cells: Drosophila S2 cells
# T1 sequence (P31749 whole entry): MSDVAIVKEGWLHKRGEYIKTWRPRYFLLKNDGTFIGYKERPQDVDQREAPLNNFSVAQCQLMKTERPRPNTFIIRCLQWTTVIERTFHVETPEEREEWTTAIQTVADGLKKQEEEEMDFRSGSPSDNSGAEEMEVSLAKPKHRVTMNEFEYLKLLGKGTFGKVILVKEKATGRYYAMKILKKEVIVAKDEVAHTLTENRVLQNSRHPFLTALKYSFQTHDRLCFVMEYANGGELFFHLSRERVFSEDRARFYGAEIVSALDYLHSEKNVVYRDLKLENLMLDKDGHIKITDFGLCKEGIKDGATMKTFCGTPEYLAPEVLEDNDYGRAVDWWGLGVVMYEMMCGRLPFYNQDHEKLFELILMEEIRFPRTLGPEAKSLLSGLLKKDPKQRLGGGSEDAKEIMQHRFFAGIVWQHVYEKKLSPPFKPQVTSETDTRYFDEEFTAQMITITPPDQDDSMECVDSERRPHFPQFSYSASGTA
# Protocol: (§1) Activated Akt isoforms and pleckstrin homology domain deletion constructs were assayed utilizing a GSK-derived biotinylated peptide substrate. The extent of peptide phosphorylation was determined by Homogeneous Time Resolved Fluorescence (HTRF) using a lanthanide chelate(Lance)-coupled monoclonal antibody specific for the phosphopeptide in combination with a streptavidin-linked allophycocyanin (SA-APC) fluorophore which will bind to the biotin moiety on the peptide. When the Lance and APC are in proximity (i.e. bound to the same phosphopeptide molecule), a non-radiative energy transfer takes place from the Lance to the APC, followed by emission of light from APC at 665 nm.
# (§2) Materials Required for the Assay:
# (§3) A. Activated Akt isozyme or pleckstrin homology domain deleted construct
# (§4) B. Akt peptide substrate: GSK3α (S21) Peptide #3928 biotin-GGRARTSSFAEPG (SEQ. ID. NO.:15), Macromolecular Resources.
# (§5) C. Lance labeled anti-phospho GSK3α monoclonal antibody (Cell Signaling Technology, clone #27).
# (§6) D. SA-APC (Prozyme catalog no. MS lot #896067).
# (§7) E. Microfluor®B U Bottom Microtiter Plates (Dynex Technologies, Catalog no. 7205).
# (§8) F. Discovery® HTRF Microplate Analyzer, Packard Instrument Company.
# (§9) G. 100× Protease Inhibitor Cocktail (PIC): 1 mg/mL benzamidine, 0.5 mg/mL pepstatin, 0.5 mg/mL leupeptin, 0.5 mg/mL aprotinin.
# (§10) H. 10× Assay Buffer: 500 mM HEPES, pH 7.5, 1% PEG, […], 1 mM EGTA, 1% BSA, 20 mM ∂-Glycerol phosphate.
# (§11) I. Quench Buffer: 50 mM HEPES pH 7.3, 16.6 mM EDTA, 0.1% BSA, 0.1% Triton X-100, 0.17 nM Lance labeled monoclonal antibody clone #27, 0.0067 mg/mL SA-APC
# (§12) J. ATP/MgCl2 working solution: 1× Assay buffer, 1 mM DTT, 1×PIC, 125 mM KCl, 5% Glycerol, 25 mM MgCl2, 375 μM ATP
# (§13) K. Enzyme working solution: 1× Assay buffer, 1 mM DTT, 1×PIC, 5% Glycerol, active Akt. The final enzyme concentrations were selected so that the assay was in a linear response range.
# (§14) L. Peptide working solution: 1× Assay buffer, 1 mM DTT, 1×PIC, 5% Glycerol, 2 μM GSK3 biotinylated peptide #3928
# (§15) The reaction is assembled by adding […] of the ATP/MgCl2 working solution to the appropriate wells of a 96-well microtiter plate. Inhibitor or vehicle (1.0 μL) is added followed by 10 μL of peptide working solution. The reaction is started by adding 13 μl, of the enzyme working solution and mixing. The reaction is allowed to proceed for 50 min and then stopped by the addition of 60 μL, HTRF quench buffer. The stopped reactions were incubated at room temperature for at least 30 min and then read on the Discovery instrument.
# Akt2 kinase = target: T2, Akt2 kinase (Homo sapiens, UniProt P31751); test: as above; format: biochemical; conditions: activated Akt2 kinase
# T2 construct: a middle T tag was added to the 5′ end of the full length Akt2 using the PCR primer; biotin tag (from pS2neo vector); made in house; host or cells: Drosophila S2 cells
# T2 sequence (P31751 whole entry): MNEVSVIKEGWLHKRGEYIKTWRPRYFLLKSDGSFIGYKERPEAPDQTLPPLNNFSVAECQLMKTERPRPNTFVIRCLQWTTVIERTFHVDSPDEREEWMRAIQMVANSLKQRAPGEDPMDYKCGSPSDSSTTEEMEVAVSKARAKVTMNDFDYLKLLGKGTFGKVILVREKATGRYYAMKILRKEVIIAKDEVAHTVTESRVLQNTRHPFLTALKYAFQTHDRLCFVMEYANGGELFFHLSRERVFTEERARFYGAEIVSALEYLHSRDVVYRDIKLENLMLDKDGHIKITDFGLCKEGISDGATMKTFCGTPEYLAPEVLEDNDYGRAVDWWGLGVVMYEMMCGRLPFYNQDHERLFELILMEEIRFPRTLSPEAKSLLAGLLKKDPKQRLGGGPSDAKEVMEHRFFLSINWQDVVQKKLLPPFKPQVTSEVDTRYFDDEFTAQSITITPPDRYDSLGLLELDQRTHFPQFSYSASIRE
# Protocol: as §1, §2, §3, §4, §5, §6, §7, §8, §9, §10, §11, §12, §13, §14, §15
SMILES,IC50 (Akt1 kinase) [nM],IC50 (Akt2 kinase) [nM]
"NC1(c2ccc(-c3nc4ccn5c(-c6ncccn6)nnc5c4cc3-c3ccccc3)cc2)CC(F)(F)C1 [EXAMPLE 2-10, 3,3-difluoro-1-{4-[9-phenyl-3-(2-pyrimidinyl)[1,2,4]triazolo[3,4-f]-1,6-naphthyridin-8-yl]phenyl}cyclobutanamine]",6,44.4
"N[C@]1(c2ccc(-c3nc4ccn5c(-c6ncccn6)nnc5c4cc3-c3ccccc3)cc2)C[C@](O)(C2CC2)C1 [EXAMPLE 2-14, trans-3-amino-1-cyclopropyl-3-{-4-[9-phenyl-3-(2-pyrimidinyl)-[1,2,4]triazolo[3,4-f]-1,6-naphthyridin-8-yl]phenyl}cyclobutanol]",0.3,4
"C[C@]1(O)C[C@@](N)(c2ccc(-c3nc4ccc5nnc(-c6cccnc6)n5c4nc3-c3ccccc3)cc2)C1 [EXAMPLE 3-7, trans-3-amino-1-methyl-3-{4-[2-phenyl-9-(3-pyridinyl)[1,2,4]triazolo-[4′,3′:1,6]pyrido[2,3-b]pyrazin-3-yl]phenyl}cyclobutanol]",0.4,4
"N[C@]1(c2ccc(-c3nc4ccc5nnc(-c6ccc(O)cc6)n5c4nc3-c3ccccc3)cc2)C[C@](O)(C2CC2)C1 [EXAMPLE 3-14, 4-{3-[4-(trans-1-amino-3-cyclopropyl-3-hydroxycyclobutyl)phenyl]-2-phenyl[1,2,4]triazolo[4′,3′:1,6]pyrido[2,3-b]pyrazin-9-yl]phenol]",0.3,11
"NC1(c2ccc(-c3nc4ccc5nnc(CCC(F)(F)F)n5c4nc3-c3ccccc3)cc2)CC(O)(C2CC2)C1 (stereo not drawn) [EXAMPLE 3-20, trans-3-amino-1-cyclopropyl-3-{4-[2-phenyl-9-(3,3,3-trifluoropropyl)[1,2,4]triazolo[4′,3′:1,6]pyrido[2,3-b]pyrazin-3-yl]phenyl}cyclobutanol]",0.5,6.3
"Cc1nc(-c2nnc3c4cc(-c5ccccc5)c(-c5ccc(C6(N)CC(F)(F)C6)cc5)nc4ccn23)n[nH]1 [EXAMPLE 5-16, 3,3-difluoro-1-{4-[3-(5-methyl-1H-1,2,4-triazol-3-yl)-9-phenyl[1,2,4]triazolo[3,4-f]-1,6-naphthyridin-8-yl]phenyl}cyclobutanamine]",4.7,84.3
